Results published in ChEMBL document CHEMBL1127271, “Synthesis of 1,2,4-triazine-(2H,4H)-3,5,-dione anticoccidial agents via palladium-catalyzed cross-coupling reactions” (Bioorg Med Chem Lett, 1994).
Activity calls are given as the source filed them. No cut-off for these calls is given here.

The compounds below were run on Eimeria tenella (assay: In vivo anti-coccidial activity determined at a dose of <16 p.p.m. (battery efficacy against Eimeria tenella); IA means Inactive).
Format: functional, organism-based

Compound | Activity
Trimethyl-(4-methyl-cyclohex-1-enyl)-stannane | inactive
[1-(2,5-Dimethoxy-phenyl)-vinyl]-trimethyl-stannane | inactive
C=C(c1c(Cl)cc(-n2ncc(=O)[nH]c2=O)cc1Cl)C1CCCC1 | inactive
(1-Cyclopentyl-vinyl)-trimethyl-stannane | inactive
(1-Cyclohexyl-vinyl)-trimethyl-stannane | inactive
C=C(c1c(Cl)cc(-n2ncc(=O)[nH]c2=O)cc1Cl)C1CCCCC1 | inactive
CC1CC=C(c2c(Cl)cc(-n3ncc(=O)[nH]c3=O)cc2Cl)CC1 (centres undefined) | inactive
O=C(O)c1nn(-c2ccc(I)c(C(F)(F)F)c2)c(=O)[nH]c1=O | inactive
O=c1cnn(-c2ccc(I)c(C(F)(F)F)c2)c(=O)[nH]1 | inactive
